The supplement of paper PMC10307832

Tests used:
Assay in all cases: relative viability (nuclei count vs DMSO), 5 days (fraction); higher = more cells survive
[1] = compound: C1CC2=C(C1)C=C(C=C2)OC3=NC(=C4C(=N3)N(C=N4)CC5=CC=C(C=C5)C6=CC=CC=C6)N[C@@H](CC7=CC=CC=C7)CO [QS11] + Nc1ncn([C@H]2C[C@H](O)[C@@H](CO)O2)c(=O)n1 [Decitabine] (partner 2 µM)
Procedure, shortened: (§1)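 Five library-drug doses in √10 steps were combined with a fixed anchor-drug dose, or a single drug was given alone, by pin tool to lung cancer cell lines in 1536-well plates the day after seeding. Nuclei were stained and counted after 5 days. Relative viability is the nuclei count in treated wells over that in vehicle wells, taken as the median of duplicate plates.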

[2] = compound: CC1=C(C=C(C=C1)NC(=O)C2=CC(=CC=C2)C(C)(C)C#N)NC3=CC4=C(C=C3)N=CN(C4=O)C [AZ628] + Cc1nc(Nc2ncc(C(=O)Nc3c(C)cccc3Cl)s2)cc(N2CCN(CCO)CC2)n1 [Dasatinib] (partner 0.075 µM)
Procedure, shortened: as §1

[3] = compound: C[As](C)SC[C@H](NC(=O)CC[C@H](N)C(=O)O)C(=O)NCC(=O)O [Darinaparsin] + CC(=O)Nc1cccc(-n2c(=O)n(C3CC3)c(=O)c3c(Nc4ccc(I)cc4F)n(C)c(=O)c(C)c32)c1 [Trametinib] (partner 0.02 µM)
Procedure, shortened: as §1

[4] = compound: C[As](C)SC[C@H](NC(=O)CC[C@H](N)C(=O)O)C(=O)NCC(=O)O [Darinaparsin] + CC(C)C[C@H](NC(=O)[C@H](Cc1ccccc1)NC(=O)c1cnccn1)B(O)O [Bortezomib] (partner 0.002 µM)
Procedure, shortened: as §1

Cell Line	relative viability ([1]; first compound 0.08 µM)	relative viability ([1]; first compound 0.253 µM)	relative viability ([1]; first compound 0.8 µM)	relative viability ([1]; first compound 2.53 µM)	relative viability ([1]; first compound 8 µM)	relative viability ([2]; first compound 0.08 µM)	relative viability ([2]; first compound 0.253 µM)	relative viability ([2]; first compound 0.8 µM)	relative viability ([2]; first compound 2.53 µM)	relative viability ([2]; first compound 8 µM)	relative viability ([3]; first compound 0.08 µM)	relative viability ([3]; first compound 0.8 µM)	relative viability ([3]; first compound 2.53 µM)	relative viability ([3]; first compound 8 µM)	relative viability ([4]; first compound 0.08 µM)	relative viability ([4]; first compound 0.8 µM)	relative viability ([4]; first compound 2.53 µM)	relative viability ([4]; first compound 8 µM)
UMC-11	0.318	0.482	0.604	0.543	0.651	0.659	0.448	0.474	0.5	0.47	0.781	0.643	0.729	0.704	0.81	0.728	0.442	0.739
LCLC-103H	0.701	0.815	–	0.756	0.711	0.559	0.427	0.523	0.399	0.478	0.69	0.659	0.675	0.765	1.05	0.978	1.14	1.35
LU99A	0.873	0.967	0.963	0.922	0.931	0.527	0.625	0.52	0.492	0.242	0.529	0.62	0.545	0.55	1.33	1.01	1.17	1.21
LXF-289	0.347	0.361	0.346	0.443	0.396	0.192	0.23	0.279	0.274	0.167	0.768	0.667	0.677	0.697	1.09	1.03	0.81	1.19
EPLC-272H	–	0.382	0.388	0.385	0.341	0.317	0.345	0.398	0.357	0.231	0.292	0.311	0.31	0.305	1.07	0.969	0.74	0.9
LOU-NH91	0.807	0.8	0.776	0.852	0.821	0.553	0.484	0.541	0.497	0.471	0.848	0.747	0.851	0.822	0.495	0.56	0.537	0.519
HCC-44	1.08	0.936	0.572	0.922	0.916	–	–	–	–	–	1.11	1.2	0.942	1.1	1.04	0.861	0.801	1.04
NCI-H1651	0.591	0.641	0.54	0.566	0.578	0.517	0.384	0.408	0.392	0.535	0.825	0.784	0.813	0.898	1.05	1.05	0.917	1.12
NCI-H1915	0.248	0.266	–	0.267	0.287	0.327	0.293	0.249	0.199	0.139	0.336	0.301	0.288	0.3	1.08	1.03	0.844	1.25
NCI-H2009	0.362	0.426	0.364	0.409	0.371	0.202	0.258	0.182	0.173	0.184	0.283	0.246	0.196	0.27	1.1	1.06	0.963	0.845
COR-L 105	0.747	0.633	0.731	0.639	0.599	0.358	0.419	0.285	0.312	0.244	0.473	0.456	0.427	0.45	0.944	0.78	–	0.636
ABC-1	0.946	1.04	0.907	1.12	0.949	0.592	0.412	0.583	0.516	0.52	–	–	–	–	0.256	0.443	0.331	0.234
NCI-H1793	0.474	0.424	0.51	0.477	0.453	0.422	0.315	0.354	0.344	0.388	0.427	0.482	–	0.526	–	–	–	–
NCI-H1792	–	0.536	0.518	0.498	0.58	0.901	0.595	0.513	0.584	0.299	0.513	0.52	–	0.557	1.69	1.03	0.652	1.03
ChaGo-K-1	–	0.515	0.5	0.56	0.443	0.585	0.501	0.287	0.547	0.564	0.914	0.862	0.785	0.984	1.18	1.07	1.01	0.767
NCI-H2342	0.744	0.724	0.715	0.718	0.77	0.319	0.307	0.327	0.306	0.298	0.966	0.843	0.789	0.73	–	–	–	–
NCI-H1975	0.369	0.358	0.397	0.376	0.358	0.351	0.292	0.283	0.248	0.174	0.35	0.382	0.328	0.307	0.444	0.4	0.291	0.306
CAL-12T	–	–	–	–	–	0.385	0.336	0.255	0.271	0.278	0.333	0.376	0.383	0.306	1.01	0.924	0.94	0.997
NCI-H1648	0.516	0.436	0.476	0.443	0.665	–	–	–	–	–	–	0.445	–	0.408	–	–	–	–
NCI-H358	0.213	0.213	0.227	0.266	0.207	0.184	0.124	0.136	0.161	0.1	0.112	0.129	0.134	0.145	–	–	–	–
NCI-H3122	0.484	0.554	–	0.487	0.556	0.819	0.39	0.15	0.212	0.176	0.231	0.208	0.216	0.347	1.04	1.02	1.08	1.13
NCI-H2347	0.587	0.563	0.582	0.694	0.659	0.272	0.278	0.22	0.252	0.163	0.249	0.266	0.307	0.242	1.18	0.742	0.831	1.16
HCC-15	0.697	0.737	0.573	0.586	0.525	0.642	0.496	0.389	0.404	0.23	0.409	0.321	0.27	0.415	1.25	1.06	0.863	1.28

Cell Line	relative viability ([1]; first compound 0.08 µM)	relative viability ([1]; first compound 0.253 µM)	relative viability ([1]; first compound 0.8 µM)	relative viability ([1]; first compound 2.53 µM)	relative viability ([1]; first compound 8 µM)	relative viability ([2]; first compound 0.08 µM)	relative viability ([2]; first compound 0.253 µM)	relative viability ([2]; first compound 0.8 µM)	relative viability ([2]; first compound 2.53 µM)	relative viability ([2]; first compound 8 µM)	relative viability ([3]; first compound 0.08 µM)	relative viability ([3]; first compound 0.8 µM)	relative viability ([3]; first compound 2.53 µM)	relative viability ([3]; first compound 8 µM)	relative viability ([4]; first compound 0.08 µM)	relative viability ([4]; first compound 0.8 µM)	relative viability ([4]; first compound 2.53 µM)	relative viability ([4]; first compound 8 µM)
HCC-366	0.346	0.329	–	0.369	0.192	0.663	0.653	0.492	0.55	0.406	0.393	–	0.336	0.378	1.71	1.11	0.768	1.94
BEN	0.717	0.775	0.74	0.713	0.695	0.348	0.304	0.301	0.508	0.309	1.18	0.998	0.991	1.12	0.889	0.846	0.654	1
NCI-H1993	0.614	0.621	0.655	0.543	0.573	0.556	0.546	0.613	0.578	0.553	0.661	0.5	0.512	0.589	1.24	0.875	1.31	1.04
NCI-H2405	0.793	0.714	0.706	0.906	0.843	0.175	0.201	0.189	0.172	0.23	0.702	0.562	0.55	0.668	1.08	0.936	0.899	1.09
NCI-H2126	0.588	0.63	0.573	0.574	0.473	0.584	0.565	0.492	0.491	0.415	0.629	0.563	0.575	0.542	1.16	1.2	0.892	1.19
LK-2	0.246	0.332	0.37	0.288	0.23	0.311	0.288	0.204	0.23	0.212	0.936	0.61	0.847	0.878	–	–	–	–
SK-MES-1	0.361	0.444	0.339	0.447	0.351	0.347	0.342	0.287	0.338	0.218	0.558	0.521	0.551	0.61	–	–	–	–
NCI-H1944	0.393	0.421	–	0.419	0.366	0.209	0.211	0.208	0.192	0.197	0.404	0.401	0.371	0.408	–	–	–	–
NCI-H1703	–	–	–	–	–	–	–	–	–	–	–	–	–	–	0.317	0.338	0.39	0.33
SW 1573	0.548	0.612	0.558	0.475	0.388	0.535	0.422	0.381	0.434	0.302	0.589	0.516	0.58	0.744	1.02	1.01	1.05	1.29
Calu-6	–	–	–	–	–	–	–	–	–	–	–	–	–	–	1.04	0.968	0.949	0.945
IA-LM	–	–	–	–	–	–	–	–	–	–	–	–	–	–	0.893	1.08	1.32	1.01
NCI-H1395	0.699	0.791	0.71	0.789	0.801	0.411	0.426	0.416	0.423	0.362	1.24	0.954	0.957	0.94	–	–	–	–
A549	0.224	0.215	0.271	0.214	0.212	–	–	–	–	–	–	–	–	–	–	–	–	–
EBC-1	–	–	–	–	–	–	–	–	–	–	–	–	–	–	0.473	0.559	0.471	0.507
NCI-H1623	–	–	–	–	–	0.554	0.447	0.301	0.493	0.374	–	–	–	–	–	–	–	–
NCI-H522	0.704	0.569	0.677	0.664	0.726	0.758	0.952	0.732	0.919	0.731	0.704	0.888	0.682	0.816	–	–	–	–
NCI-H2170	0.487	0.466	0.398	0.43	0.5	0.555	0.391	0.46	0.557	0.481	1.17	0.955	0.926	1.18	–	–	–	–
NCI-H1299	–	–	–	–	–	–	–	–	–	–	–	–	–	–	1.01	0.99	1.03	1.04
NCI-H1563	–	–	–	–	–	0.477	0.436	0.469	0.487	0.475	–	–	–	–	0.831	0.862	0.828	0.93
SW 900	0.37	0.475	0.413	0.491	0.412	1.1	0.466	0.59	0.528	0.547	0.73	–	0.813	0.985	–	–	–	–
NCI-H2228	–	–	–	–	–	0.479	0.531	0.47	0.432	0.396	0.563	0.382	0.462	0.354	1.63	1.12	0.975	1.13
